Our source for the IC50, inhibition and Activity values is ChEMBL document CHEMBL5385853, “Design, synthesis, and biological evaluation of novel quinoline derivatives as small molecule mutant EGFR inhibitors targeting resistance in NSCLC: In vitro screening and ADME predictions” (Eur J Med Chem, 2023).

Calls of active or inactive are those of the source. The calls are words filed in the database; no cut-off is given here.

One data set concerns HCC827. The data set can be described thus: Anticancer activity against human HCC827 cells harboring EGFR E746_A750 del mutant assessed as reduction in cell viability measured after 72 hrs by MTT assay. Particulars: HCC827, 72 h. It counts as functional, cell-based. For orientation: Tetrazolium dyes change colour on reduction, which living cells bring about.
The next data set has as its system NCI-H1975. The experiment in a line: Anticancer activity against human NCI-H1975 cells harboring EGFR L858R/T790M mutant assessed as reduction in cell viability measured after 72 hrs by MTT assay. It is filed as functional, cell-based. As to conditions: NCI-H1975, 72 h.
In data set [1] the test system is A549. The experiment in a line: Anticancer activity against human A549 cells assessed as reduction in cell viability measured after 72 hrs by MTT assay. It is filed as functional, cell-based. Particulars: A549, 72 h.
The subject of data set [2] is A549. The experiment in a line: Anticancer activity against human A549 cells overexpressing wild type EGFR assessed as reduction in cell viability measured after 72 hrs by MTT assay. It is filed as functional, cell-based. Particulars: A549, 72 h.
A short description of data set [3]: Cytotoxicity against human BEAS-2B cells assessed as reduction in cell viability measured after 72 hrs by MTT assay. It is filed as toxicity, cell-based.
For data set [4], the target named is Epidermal growth factor receptor (Homo sapiens, UniProt P00533, L858R/T790M). The data set can be described thus: Inhibition of EGFR L858R/T790M mutant (unknown origin) using poly (Glu,Tyr) as substrate incubated for 40 mins in presence of ATP by Kinase-Glo luminescent analysis. (In Kinase-Glo more light means more ATP remaining.)
Data set [5] deals with Epidermal growth factor receptor (Homo sapiens), P00533 [UNDEFINED MUTATION]. The experiment in a line: Inhibition of EGFR E746_A750 del mutant in human HCC827 cells assessed as inhibition of Akt phosphorylation at 0.01 to 1 uM by western blot analysis. It counts as cell-based. As to conditions: dose 0.01-1 µM.
Data set [6] relates to NSCLC. The experiment in a line: Induction of apoptosis in human NSCLC assessed as early apoptotic cells at IC50 measured after 24 to 48 hrs by AnnexinV-FITC/PI staining based flow cytometry (reference value: 2.1%). It counts as functional. As to conditions: time 24-48 hrs.
Data set [7] deals with NSCLC. The experiment in a line: Induction of apoptosis in human NSCLC assessed as late apoptotic cells at IC50 measured after 24 to 48 hrs by AnnexinV-FITC/PI staining based flow cytometry (reference value: 1.1%). As to conditions: time 24-48 hrs. It counts as functional. For orientation: In flow cytometry, cells or beads pass a laser one at a time.
The target of data set [8] is Epidermal growth factor receptor (Homo sapiens, UniProt P00533). The experiment in a line: Inhibition of EGFR (unknown origin).
Epidermal growth factor receptor (Homo sapiens, UniProt P00533), sequence (P00533 whole entry): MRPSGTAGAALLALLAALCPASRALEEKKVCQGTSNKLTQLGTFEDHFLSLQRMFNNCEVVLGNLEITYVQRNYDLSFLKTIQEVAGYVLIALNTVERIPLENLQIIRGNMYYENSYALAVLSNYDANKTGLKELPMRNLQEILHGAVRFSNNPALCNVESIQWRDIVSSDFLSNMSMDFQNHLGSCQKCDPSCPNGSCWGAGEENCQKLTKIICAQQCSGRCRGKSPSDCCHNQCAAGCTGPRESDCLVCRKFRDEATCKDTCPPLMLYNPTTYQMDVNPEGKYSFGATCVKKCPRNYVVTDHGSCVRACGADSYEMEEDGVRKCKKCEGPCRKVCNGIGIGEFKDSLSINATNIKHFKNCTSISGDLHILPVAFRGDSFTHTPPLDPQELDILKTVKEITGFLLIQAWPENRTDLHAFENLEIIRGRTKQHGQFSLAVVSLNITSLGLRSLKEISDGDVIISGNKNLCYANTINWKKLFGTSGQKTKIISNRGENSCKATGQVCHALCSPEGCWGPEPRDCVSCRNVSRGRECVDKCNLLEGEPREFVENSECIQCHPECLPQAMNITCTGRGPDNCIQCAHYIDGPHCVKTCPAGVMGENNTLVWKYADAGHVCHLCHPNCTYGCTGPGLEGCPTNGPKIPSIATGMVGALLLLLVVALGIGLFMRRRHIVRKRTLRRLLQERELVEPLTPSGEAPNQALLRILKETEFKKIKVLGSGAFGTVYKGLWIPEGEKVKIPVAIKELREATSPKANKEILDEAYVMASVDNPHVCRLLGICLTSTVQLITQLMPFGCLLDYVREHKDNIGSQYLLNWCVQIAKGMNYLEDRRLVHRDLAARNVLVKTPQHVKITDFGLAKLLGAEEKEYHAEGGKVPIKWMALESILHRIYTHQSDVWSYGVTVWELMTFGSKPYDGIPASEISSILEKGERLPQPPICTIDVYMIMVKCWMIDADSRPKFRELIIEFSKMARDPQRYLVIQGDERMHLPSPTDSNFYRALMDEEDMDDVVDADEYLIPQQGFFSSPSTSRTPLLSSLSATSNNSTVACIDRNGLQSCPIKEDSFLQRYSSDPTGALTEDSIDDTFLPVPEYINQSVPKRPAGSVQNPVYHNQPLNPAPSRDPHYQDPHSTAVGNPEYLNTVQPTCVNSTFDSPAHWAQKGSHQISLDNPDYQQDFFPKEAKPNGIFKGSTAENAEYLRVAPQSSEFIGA

Epidermal growth factor receptor (Homo sapiens, UniProt P00533, L858R/T790M), sequence (P00533 25-1210 T790M/L858R limits assumed): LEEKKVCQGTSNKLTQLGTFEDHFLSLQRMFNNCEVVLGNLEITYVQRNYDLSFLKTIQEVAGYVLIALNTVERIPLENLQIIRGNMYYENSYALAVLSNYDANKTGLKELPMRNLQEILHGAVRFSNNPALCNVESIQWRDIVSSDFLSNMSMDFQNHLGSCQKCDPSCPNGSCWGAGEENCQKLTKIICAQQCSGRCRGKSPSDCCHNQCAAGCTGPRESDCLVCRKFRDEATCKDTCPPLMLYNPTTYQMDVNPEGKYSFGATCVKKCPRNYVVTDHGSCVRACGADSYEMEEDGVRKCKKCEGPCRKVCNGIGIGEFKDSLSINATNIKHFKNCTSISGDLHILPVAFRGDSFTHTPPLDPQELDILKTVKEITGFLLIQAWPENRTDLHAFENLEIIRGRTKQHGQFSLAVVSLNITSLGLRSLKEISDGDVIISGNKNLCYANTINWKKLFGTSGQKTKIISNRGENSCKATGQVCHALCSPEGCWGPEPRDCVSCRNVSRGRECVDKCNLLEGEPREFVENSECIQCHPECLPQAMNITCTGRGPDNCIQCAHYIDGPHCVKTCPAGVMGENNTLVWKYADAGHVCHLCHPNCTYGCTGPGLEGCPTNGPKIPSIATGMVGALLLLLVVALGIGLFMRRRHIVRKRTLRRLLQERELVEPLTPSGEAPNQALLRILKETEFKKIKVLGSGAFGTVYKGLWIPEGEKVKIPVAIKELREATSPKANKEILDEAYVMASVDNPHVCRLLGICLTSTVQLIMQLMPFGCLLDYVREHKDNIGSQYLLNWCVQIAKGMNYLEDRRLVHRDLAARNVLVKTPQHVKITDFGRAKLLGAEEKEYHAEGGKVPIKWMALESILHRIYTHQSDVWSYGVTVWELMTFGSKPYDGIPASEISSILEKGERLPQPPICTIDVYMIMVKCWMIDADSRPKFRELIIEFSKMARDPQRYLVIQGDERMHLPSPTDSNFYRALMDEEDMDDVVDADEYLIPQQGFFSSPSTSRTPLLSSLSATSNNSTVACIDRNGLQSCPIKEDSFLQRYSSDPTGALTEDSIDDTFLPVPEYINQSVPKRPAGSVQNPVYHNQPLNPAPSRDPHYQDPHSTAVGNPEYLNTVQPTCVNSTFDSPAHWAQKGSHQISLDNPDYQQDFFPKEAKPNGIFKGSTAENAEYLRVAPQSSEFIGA
Epidermal growth factor receptor (Homo sapiens), P00533 [UNDEFINED MUTATION], sequence (P00533 whole entry, looked up, stated change not applied): as the sequence (P00533 whole entry) above

With `CCOC(=O)c1c(-n2ccnc2)nc2ccc(Br)cc2c1N1CCN(c2ccccc2NS(=O)(=O)c2ccc(OC)cc2)CC1`, the IC50 with HCC827 was determined as 0.38 µM; in the data set with NCI-H1975, 4.8 µM; in the data set with A549 [1], 10.2 µM; with A549 [2], 6.11 µM.
For `CCOC(=O)c1c(-n2ccnc2)nc2ccc(Br)cc2c1N1CCN(c2ccccc2NS(=O)(=O)c2ccc(F)cc2)CC1`, the IC50 amounted to 0.062 µM in the data set with HCC827; 0.82 µM in the data set with NCI-H1975; 0.152 µM in [4]; 4.22 µM with A549 [1]; 1.88 µM in the data set on A549 [2]. In addition, the concentration for half-maximal inhibition (IC50) at 72 h in data set [3] is 86.5 µM.
For `CCOC(=O)c1c(-n2ccnc2)nc2ccc(Br)cc2c1N1CCN(c2ccccc2NC(=O)C2CC(=O)C2)CC1`, the IC50 is 0.1 µM with HCC827, 0.11 µM in the data set on NCI-H1975, 11 µM with A549 [1] and 7.94 µM in the data set with A549 [2].
The corresponding values for `CCOC(=O)c1c(-n2ccnc2)nc2ccc(Br)cc2c1N1CCN(c2ccccc2NC(=O)c2ccccc2F)CC1` are 0.17 µM, 2.81 µM, 8.32 µM and 4.88 µM.
For the compound `CCOC(=O)c1c(-n2ccnc2)nc2ccc(Br)cc2c1N1CCN(c2ccccc2NS(=O)(=O)c2ccccc2F)CC1`, the IC50 was determined as 0.05 µM with HCC827; 0.86 µM in the data set on NCI-H1975; 0.144 µM in [4]; 4.87 µM in the data set with A549 [1]; 2.41 µM in the data set with A549 [2]. In data set [5], the inhibition result was “inactive”.
Consider `CCOC(=O)c1c(-n2ccnc2)nc2ccc(Br)cc2c1N1CCN(c2ccccc2NS(=O)(=O)c2ccc(C(C)(C)C)cc2)CC1`, for which the IC50 in the data set on HCC827 came out at 0.96 µM; in the data set on NCI-H1975 it was 11.8 µM; in the data set on A549 [1] it was 15.1 µM; in the data set with A549 [2] it was 10.8 µM.
The corresponding values for `CCOC(=O)c1c(-n2ccnc2)nc2ccc(Br)cc2c1N1CCN(c2ccccc2NS(=O)(=O)c2ccc(Cl)cc2)CC1` are 0.22 µM, 2.86 µM, 8.36 µM and 5.64 µM.
The corresponding values for `CCOC(=O)c1c(-n2ccnc2)nc2ccc(Br)cc2c1N1CCN(C(=O)OC(C)(C)C)CC1` are 2.11 µM, 16 µM, 14.2 µM and 12.2 µM.
The corresponding values for `CCOC(=O)c1c(-n2ccnc2)nc2ccc(Br)cc2c1N1CCN(c2ccccc2NC(=O)c2cccc(OC)c2OC)CC1` are 0.52 µM, 6.14 µM, 11.2 µM and 8.73 µM.
For `CCOC(=O)c1c(-n2ccnc2)nc2ccc(Br)cc2c1N1CCN(c2ccccc2NS(=O)(=O)c2ccc(I)cc2)CC1`, the IC50 in the data set on HCC827 came out at 0.29 µM; with NCI-H1975, 2.88 µM; with A549 [1] it was 9.18 µM; with A549 [2], 5.6 µM.
On to `CCOC(=O)c1c(-n2ccnc2)nc2ccc(Br)cc2c1N1CCN(c2ccccc2NS(=O)(=O)c2ccc(C(F)(F)F)cc2)CC1`, for which the IC50 was 0.01 µM with HCC827; 0.21 µM in the data set with NCI-H1975; 0.138 µM in data set [4]; 2.99 µM with A549 [1]; 0.99 µM in the data set on A549 [2]. Moreover, the IC50 at 72 h in data set [3] was determined as 85.1 µM. Further, the Activity in the data set with NSCLC [6] was 26.8%; with NSCLC [7], 4.2%. For the same compound, the inhibition entry in data set [5] was “inactive”.
The compound `N#Cc1c(-c2ccc3ncc(C(N)=O)c(Nc4cccc(Br)c4)c3c2)csc1N` came in with an IC50 in [8] of 0.49 µM.
As to `CCOC(=O)c1c(-n2ccnc2)nc2ccc(Br)cc2c1N1CCN(c2ccccc2NS(=O)(=O)c2cccc(C#N)c2)CC1`, the IC50 was 0.38 µM in the data set with HCC827, 4.3 µM in the data set with NCI-H1975, 9.22 µM in the data set with A549 [1] and 5.99 µM with A549 [2].
As to `CCOC(=O)c1c(-n2ccnc2)nc2ccc(Br)cc2c1N1CCN(c2ccccc2N)CC1`, the IC50 worked out at 0.97 µM in the data set with HCC827, 13.1 µM in the data set on NCI-H1975, 16.8 µM in the data set on A549 [1] and 11.5 µM in the data set with A549 [2].
On to `CCOC(=O)c1c(-n2ccnc2)nc2ccc(Br)cc2c1N1CCN(c2ccccc2NS(=O)(=O)c2ccc(C#N)cc2)CC1`, for which the IC50 with HCC827 was 0.33 µM; in the data set with NCI-H1975 it was 4.12 µM; in the data set with A549 [1], 9.11 µM; with A549 [2], 5.82 µM.
The compound `COc1cc2ncc(C#N)c(Nc3cccc(Br)c3)c2cc1OC` displayed an IC50 in data set [8] of 0.0075 µM.
In the case of `CCCc1cc(C(=O)Nc2ccccc2N2CCN(c3c(C(=O)OCC)c(-n4ccnc4)nc4ccc(Br)cc34)CC2)n(C)n1`, the IC50 with HCC827 is 0.88 µM; in the data set on NCI-H1975, 9.36 µM; in the data set with A549 [1] it was 11.5 µM; with A549 [2], 8.22 µM.
`CCOC(=O)c1c(-n2ccnc2)nc2ccc(Br)cc2c1N1CCN(c2ccccc2NC(=O)c2cc(F)ccc2Br)CC1`: the IC50 with HCC827 worked out at 0.18 µM; with NCI-H1975, 2.69 µM; in the data set on A549 [1], 7.01 µM; in the data set with A549 [2] it was 4.82 µM.
The corresponding values for `CCOC(=O)c1c(-n2ccnc2)nc2ccc(Br)cc2c1N1CCN(c2ccccc2NC(=O)c2cccc(Br)c2)CC1` are 0.16 µM, 2.82 µM, 8.58 µM and 4.92 µM.
Regarding `CCOC(=O)c1c(-n2ccnc2)nc2ccc(Br)cc2c1N1CCNCC1`, the IC50 in the data set on HCC827 came out at 2.45 µM; in the data set with NCI-H1975, 15.2 µM; with A549 [1], 16.2 µM; with A549 [2] it was 11.4 µM.
Consider `CCOC(=O)c1c(-n2ccnc2)nc2ccc(Br)cc2c1N1CCN(c2ccccc2NC(=O)c2cc(F)ccc2I)CC1`, for which the IC50 with HCC827 is 0.11 µM; in the data set on NCI-H1975, 2.18 µM; in the data set with A549 [1], 6.98 µM; in the data set with A549 [2] it was 4.3 µM.
For the compound `CCOC(=O)c1c(-n2ccnc2)nc2ccc(Br)cc2c1N1CCN(c2ccccc2NS(=O)(=O)c2ccc(F)c(F)c2)CC1`, the half-maximal inhibitory concentration (IC50) in the data set on HCC827 came to 0.099 µM; in the data set on NCI-H1975 it was 0.77 µM; in data set [4], 0.159 µM; in the data set on A549 [1], 3.09 µM; with A549 [2], 1.09 µM. Also, the IC50 at 72 h in data set [3] was 45.8 µM.
With `CCOC(=O)c1c(-n2ccnc2)nc2ccc(Br)cc2c1N1CCN(c2ccccc2[N+](=O)[O-])CC1`, the IC50 with HCC827 stood at 0.28 µM; in the data set on NCI-H1975, 4.43 µM; in the data set on A549 [1], 10.1 µM; in the data set with A549 [2] it was 6.09 µM.
The corresponding values for `CCOC(=O)c1c(-n2ccnc2)nc2ccc(Br)cc2c1N1CCN(c2ccccc2NS(=O)(=O)C2CC2)CC1` are 0.67 µM, 7.16 µM, 11.1 µM and 7.84 µM.
The corresponding values for `CCOC(=O)c1c(-n2ccnc2)nc2ccc(Br)cc2c1N1CCN(c2ccccc2NS(=O)(=O)c2ccc(S(C)(=O)=O)cc2)CC1` are 0.89 µM, 11.1 µM, 14.6 µM and 10.3 µM.
The corresponding values for `C=CC(=O)Nc1cc(Nc2nccc(-c3cn(C)c4ccccc34)n2)c(OC)cc1N(C)CCN(C)C` [OSIMERTINIB] are 0.004 µM, […], 2.67 µM and […].
Consider `CCOC(=O)c1c(-n2ccnc2)nc2ccc(Br)cc2c1N1CCN(c2ccccc2NS(=O)(=O)c2ccc(Br)cc2)CC1`, for which the IC50 with HCC827 worked out at 0.22 µM; in the data set with NCI-H1975 it was 2.86 µM; in the data set with A549 [1], 8.22 µM; with A549 [2], 5.02 µM.

By IC50 is commonly meant the concentration that inhibits the measured activity by half.
